“Also recorded” adds a separate entry of the source.
Key:
p-STAT3 = assay: Western blot of p-STAT3 in OECM1 cells; format: cell-based, human; details: time course 15 minutes to 24 hours, compared to sham control
Method: To determine the effect of PGDHC on cell markers involved in metastasis, the protein levels of p-STAT3, EMT markers, E-cadherin, N-cadherin, and Vimentin in OECM1 cells following in vitro exposure to PGDHC were determined by Western blot assay.

SCC9 cells = assay: Untargeted metabolomic pathway analysis (LC/MS) in SCC9 cells; format: cell-based, human; details: 1 μg/ml for 6 h
Excerpt: The plots in FIGS. 16A and 16B display the enriched pathways identified in the analysis, with their corresponding significance levels represented on the x-axis. The significance threshold (p<0.05) is denoted by the dashed line. […] Additionally, the color of the dots represents the enrichment, which indicates the extent to which the metabolites in the pathway were clustered amongst the compounds with the most positive fold-changes (positive enrichments), the most negative fold-changes (negative enrichments), or uniformly distributed across high and low fold-change compounds (enrichment values near 0.0). […] Polar and lipid metabolites were analyzed with hydrophilic interaction chromatography (HILIC/MS) and liquid chromatography (LC/MS), respectively. Mass spectrometry analysis was completed with a mass range of 67-1500 Da with 1 scan/sec and a mass resolution of 120,000 in both positive and negative ionization mode. The MS/MS mass-spectrometry data were acquired in a data-dependent iterative fashion with a 1.3 m/z isolation window. Based upon this metabolomic analysis, phosphoglycerol dihydroceramide (PGDHC) isolated from Porphyromonas gingivalis inhibits metabolomic pathways essential for cell survival in oral squamous cell carcinoma cells (OSCC). […]
SCC9 were exposed to a15:0-i15:0PE (1 μg/ml) for 6 h in vitro. […] The significance threshold (p<0.05) is denoted by the grey dashed line. […] Additionally, the color of the dots represents the enrichment, which indicates the extent to which the metabolites in the pathway were clustered amongst the compounds with the most positive fold-changes (positive enrichments), the most negative fold-changes (negative enrichments), or uniformly distributed across high and low fold-change compounds (enrichment values near 0.0).

OECM1 cells = assay: Scratch wound healing migration assay, OECM1; format: cell-based, human; details: compared to sham control
Excerpt: In vitro assays can be used to evaluate cell migration, including scratch-wound assays and wound healing assays, as in Xu et al., Exp Ther Med. 2023 October; 26(4):460. See also Liang et al., Nat Protoc. 2007;2(2):329-33 and Martinetti & Ronzato, Methods Mol Biol. 2020:2109:225-229. Additionally, the genetic components of cell migration and invasion can be evaluated. For example, MMP-2, ADAM-17 and IL-6 are associated with degradation of the basement membranes and extracellular matrix in OECM-1 cells. See, e.g., Yamada et al., J Cell Mol Med. 2023 May; 27(9):1290-1295.
A scratch wound healing assay was performed according to known methods to assess the effects of PGDHC on the migration of human oral squamous cell carcinoma cells. […] The scratch wound healing assay was validated with a transwell migration assay.
A wound healing migration assay was also conducted to determine the effects of S1P alone or in combination with PGDHC on cell migration. See Yamada et al., J Cell Mol Med. 2023 May; 27(9):1290-1295.

[1] = system: tongue squamous carcinoma cells (SCC4); assay: WST-1 proliferation assay in SCC4 cells; format: cell-based, human; details: 0.1 μg/ml and 1 μg/ml
Excerpt: (§1) In specific examples, colorimetric assays can be used to assess cellular viability and proliferation of cell cultures, such as MTT, WST-1, and resazurin assays. See, e.g., Präbst et al., Methods Mol Biol. 2017:1601:1-17.
(§2) Various cell lines were exposed to PGDHC, including human gingival squamous carcinoma cells (OECM1), tongue squamous carcinoma cells (SCC4, SCC9), and healthy human gingival epithelial control cells (OBA9) in vitro.

[2] = system: human gingival squamous carcinoma cells (OECM1); assay: Cell viability/proliferation assay (WST-1) in OECM1 cells; format: cell-based; details: each tested concentration (0.1 μg/ml and 1 μg/ml); WST-1
Excerpt: as §1, §2
To elucidate the effects of C16:0 and dh-C16:0 on oral squamous cell carcinoma, the ability of exogenous C16:0 and dh-C16:0 to modulate proliferation and ceramidase expression in OECM1 cells was determined. […] In contrast, no effect of C16:0 on ASAH1 and ACER2 mRNA expressions.
LCL521 is a dose-dependent acid ceramidase inhibitor. Comparison of the concentration-dependent effects of an acid ceramidase inhibitor, LCL521 (MedChemExpress®), and the bacterial-isolated a15:0-15:0PE phospholipid on the viability of healthy human epithelial, OBA9, and oral squamous cancer cell lines, OECM1 and SCC9, in vitro was evaluated. […] (FIG. 15A). […] (FIG. 15B).

NFkB = NFkB mRNA expression in OECM1 cells; format: cell-based, human
Method: NF-kB, MMP-2, ADAM-17, and IL6 are implicated in the degradation of the expression of genes involved in the cell basement membrane and extracellular matrix of oral squamous cell carcinoma. Accordingly, the expression of NFkB, MMP2, ADAM17, and IL6 in OECM1 cells following exposure to 0.1 μg/ml PGDHC and 1 μg/ml PGDHC was determined.
Sphingosine-1-phosphate (S1P) sphingolipid plays an essential role in the survival, migration, and degradation of the basement membrane and extracellular matrix of oral squamous cell carcinoma (Yura et al., Cancers (Basel). 2020 August; 12(8): 2062). To determine whether PGDHC can inhibit such properties, the combined effects of PGDHC and S1P on OECM1 gene expression was tested in vitro.

Substance: phosphoglycerol dihydroceramide [PGDHC]
- levels of p-STAT3 protein in OECM1 cells (p-STAT3): no effect
- Warburg effect in SCC9 cells (SCC9 cells): altered
- arginine and proline metabolism in SCC9 cells (SCC9 cells): diminished accumulation; also recorded: inhibits
- de novo triacylglycerol biosynthesis in SCC9 cells (SCC9 cells): diminished accumulation; also recorded: inhibits
- folate metabolism in SCC9 cells (SCC9 cells): diminished accumulation; also recorded: inhibits
- glycine and serine metabolism in SCC9 cells (SCC9 cells): diminished accumulation; also recorded: inhibits
- level of ATP in SCC9 cells (relative abundance) (SCC9 cells): altered
- level of glucose in SCC9 cells (relative abundance) (SCC9 cells): altered
- mitochondrial electron transport in SCC9 cells (SCC9 cells): diminished accumulation; also recorded: inhibits
- OECM1 migration, scratch wound healing assay (OECM1 cells; 1 μg/ml): significantly inhibited
- S1P-mediated wound-healing migration of OECM1 (OECM1 cells; in combination with S1P): dramatically inhibited
- proliferation of SCC4 cells [1]: did not have an observable effect
- viability of OECM1 cells [2]: significantly inhibited
- expression of NFkB mRNA in OECM1 cells (NFkB; 1 μg/ml): significantly inhibited
- expression of NFkB mRNA in OECM1 cells exposed to S1P (NFkB; in combination with S1P): significantly inhibited

Source: patent US20250312365A1, “METHODS FOR INHIBITION OF SQUAMOUS CARCINOMA CELLS USING CERAMIDE MODULATORS” (The Trustees of Indiana University, priority 2024, published 2025)
